# According to US20030065030A1, “Autonomic controlling agents and health drinks and foods” (priority 2001, published 2003):
# Where two headings read alike, the source gives them in different places.
# Legend:
# [1] = tested on: sympathetic nerve adrenal branches; assay: efferent neural activity of the sympathetic nerve adrenal branches after intravenous carnosine; assay type: in vivo, rat; details: 100 ng intravenous
# Protocol: (§1) According to the method of Niijima (Neurobiology 3:299-307, 1995), the effect of carnosine on the autonomic nerve activity was investigated. Wistar male rats, weighing about 300 g, that had been kept in an environment of room temperature (24° C.) and free access to the feed were fasted (with free access to water) 12 hours before the start of the experiment. Rats were subjected to abdominal section under urethane anesthesia (1 g/kg body weight, intraperitoneal administration), neurofilaments were isolated from central cut ends of a sympathetic nerve branch or a vagal nerve branch, and the efferent neural activity was recorded via an AC amplifier. The neural activity was observed using an oscilloscope and was recorded into magnetic tape. At the same time, the time course of the neural activity was recorded with a pen-type recorder via a rate meter with a reset time set at 5 seconds.
# (§2) Carnosine (100 ng or 1,000 ng dissolved in 0.1 ml physiological saline) was intravenously administered. As the control, physiological saline (0.1 ml) was alone administered intravenously.
# (§3) The effect of carnosine administration was calculated as the neural activity count (%) after carnosine administration relative to neural activity count (mean value of 10 activity counts during 5 minutes) before administration set at 100. Five rats were used for each experiment. Data were tested with ANOVA (p<0.05) and were expressed as mean +/− standard error.
# [2] = tested on: sympathetic nerve hepatic branches; assay: efferent neural activity of the sympathetic nerve hepatic branches after intravenous carnosine; assay type: in vivo, rat; details: 100 ng intravenous
# Protocol: as §1, §2, §3
# STZ diabetic rats = assay: anti-hyperglycemia in the STZ diabetic rats undergoing the oral glucose tolerance test; assay type: in vivo, rat
# Protocol: Wistar male rats (initial weight, about 250 g) were used. They were housed in a room illuminated with an incandescent light of 80 luxes on the average for 12 hours with free access to feed, and adapted to the environment at least 10 days. Three days before the experiment, rats under anesthesia with pentobarbital (35 mg/kg body weight, intraperitoneal administration) received the insertion of a cardiac catheter comprising a silastic tubing (Dow Corning, Midland, Mich.) and a polyethylene tubing (Clay Adams, Parsippany, N.J.) into the right atrium and a polyethylene tubing into the right lateral cerebral ventricle (LCV).
# Then, the STZ (streptozotocin) diabetic rats were created according to the report by Portha et al. (Diabetes 30:64-69, 1981). Streptozotocin (STZ, manufactured by Sigma) dissolved in 0.05 M citric acid solution (pH 4.5) at a concentration of […] was intraperitoneally administered at 60 mg/kg body weight. To the STZ diabetic rats thus created, an aqueous solution of glucose dissolved at 0.5 g/ml was orally administered at 1 ml (0.5 g) per animal (oral glucose load). Simultaneously with the glucose load, carnosine dissolved in physiological saline was administered to the rats intracranially (0.01 ml) or intraperitoneally (0.1 ml).
# The oral administration employed a sonde, and the intracranially administration was performed via a LVC polyethylene tube and the intraperitoneal administration employed an injection syringe and a needle. The control rats received physiological saline instead of carnosine, and an artificial cerebrospinal fluid instead of 2DG, each at the same amount. Before and at 15, 30, 60, and 90 minutes after the oral administration of glucose, 300 μl of blood was taken via the cardiac catheter and the glucose concentrations in the plasma (blood glucose levels) were determined. The glucose concentration in the plasma at the time of carnosine administration was calculated as a ratio (%) relative to the plasma glucose concentration before glucose administration set at 100. Four or five rats were used in the experiment. Data were tested with ANOVA (p<0.05) and were expressed as mean +/− standard error.
# [3] = tested on: autonomic nervous system in humans; assay: autonomic nerve activity in humans by ECG R-R interval power spectral analysis; assay type: in vivo, human; details: for mean promotion ratio of the overall autonomic nerve activity / mean promotion ratio of the parasympathetic nerve activity: responding subjects
# Protocol: The resting ECG of the subjects was measured for 5 minutes, and ECG was measured for 5 minutes at 30 minutes and 60 minutes after drinking the test sample, respectively. In order to avoid influences by changes in respiration, ECG was measured when the subjects were forced to respire at 15 respirations per minute. The intervals between R-waves (R-R intervals) of the ECG were determined, and were subjected to a power spectral analysis according to the program prepared by Moritani et al. (J. Sport Med. Sci. 7:31-39, 1993). For cycle components, in conformity to the classification criteria of the Cardiology society in Europe and the USA (Circulation 93:1043-1065, 1996), heart rate variation was divided into the low frequency (0.03-0.15 Hz) and the high frequency (0.15-0.4 Hz).
# Carnosine was weighed out on a chartula at 0.04 mg, 0.2 mg, 1 mg, 5 mg, and 25 mg/capita. For 0.2 mg, one mg of a 1:4 mixture of carnosine and starch powder (⅕ dilution) was weighed out. For 0.04 mg, one mg of a 1:4 mixture of carnosine and starch powder that further mixed with the starch powder at 1:4 ( 1/25 dilution) was weighed out. Carnosine was taken by licking the one weighed out on chartula.
# There were 8 subjects, 21-51 years old (33.0 +/− 11.95 years old) and weighing 54-73.5 kg (64.3 +/− 7.01 kg), and among them, the experiments of the 0.04 mg and the 0.2 mg were performed on six subjects, the experiments of the 1 mg and the 5 mg were performed on 8 subjects, and the experiment of the 25 mg was performed on 5 subjects.
# [4] = cited from earlier work
# [5] = 30 minutes after administration
# [6] = 60 minutes after administration
# [7] = 90 minutes after administration
# [8] = 0.04 mg oral ingestion, the one responding subject
compound,measurement,setting,value
"NCCC(=O)N[C@@H](Cc1cnc[nH]1)C(=O)O [carnosine, β-alanyl-L-histidine]",suppression rate of efferent neural activity of the sympathetic nerve adrenal branches,[1]; [5],31.3%
same,suppression rate of efferent neural activity of the sympathetic nerve adrenal branches,[1]; [6],46.9%
same,suppression rate of efferent neural activity of the sympathetic nerve adrenal branches,[1]; [7],58.1%
same,suppression rate of efferent neural activity of the sympathetic nerve hepatic branches,[2]; [5],20.1%
same,suppression rate of efferent neural activity of the sympathetic nerve hepatic branches,[2]; [6],25.9%
same,suppression rate of efferent neural activity of the sympathetic nerve hepatic branches,[2]; [7],32.0%
same,suppression rate of increase in blood glucose by oral glucose load,"STZ diabetic rats; 10 ng intracranial, 15 minutes",14.5%
same,suppression rate of increase in blood glucose by oral glucose load,"STZ diabetic rats; 10 ng intracranial, 30 minutes",17.3%
same,suppression rate of increase in blood glucose by oral glucose load,"STZ diabetic rats; 10 ng intracranial, 60 minutes",14.7%
same,suppression rate of increase in blood glucose by oral glucose load,"STZ diabetic rats; 10 ng intracranial, 90 minutes",11.4%
same,suppression rate of increase in blood glucose by oral glucose load,"STZ diabetic rats; 100 ng intraperitoneal, 60 minutes",14.3%
same,suppression rate of increase in blood glucose by oral glucose load,"STZ diabetic rats; 100 ng intraperitoneal, 90 minutes",12.4%
same,ratio of those who exhibited promotion (more than 200% of the previous value of the parasympathetic nerve activity),[3]; 0.04 mg oral ingestion,16.7%
same,promotion ratio of the overall autonomic nerve activity,[3]; [8],195%
same,promotion ratio of the parasympathetic nerve activity,[3]; [8],249%
same,ratio of those who exhibited promotion (more than 200% of the previous value of the parasympathetic nerve activity),[3]; 0.2 mg oral ingestion,66.7%
same,mean promotion ratio of the overall autonomic nerve activity,[3]; 0.2 mg oral ingestion,329%
same,mean promotion ratio of the parasympathetic nerve activity,[3]; 0.2 mg oral ingestion,436%
same,ratio of those who exhibited promotion (more than 200% of the previous value of the parasympathetic nerve activity),[3]; 1 mg oral ingestion,37.5%
same,mean promotion ratio of the overall autonomic nerve activity,[3]; 1 mg oral ingestion,190%
same,mean promotion ratio of the parasympathetic nerve activity,[3]; 1 mg oral ingestion,259%
same,ratio of those who exhibited promotion (more than 200% of the previous value of the parasympathetic nerve activity),[3]; 5 mg oral ingestion,25.0%
same,mean promotion ratio of the overall autonomic nerve activity,[3]; 5 mg oral ingestion,410%
same,mean promotion ratio of the parasympathetic nerve activity,[3]; 5 mg oral ingestion,472%
same,ratio of those who exhibited promotion (more than 200% of the previous value of the parasympathetic nerve activity),[3]; 25 mg oral ingestion,0%
same,absorptivity relative to carnosine alone,[4]; administered to the jejunum of mice in combination with L-alanine,more than two-fold higher
same,absorptivity relative to carnosine alone,[4]; administered to the jejunum of mice with β-alanine,more than tripled
same,oral absorptivity,[4]; mice,30-70%
